Like-named read-outs stand apart in the source and are kept apart here.
Columns and labels:
[1] = Dissolution rate, USP II paddle method, simulated in vivo condition; assay type: physicochemical; settings: medium conversion pH 1.2→6.8
Method: Analytical method for dissolution samples: the same as the HPLC method in the above assay of apparent solubility.
It was reported that the pH value in human stomach was about 1.2, and that in human intestine was about 6.8. The dissolution of each of the pharmaceutical compositions of the present invention was determined under a stimulated in vivo condition, and the results are shown in Table 1-3.

[2] = Apparent solubility in phosphate buffer solution pH 6.8; assay type: physicochemical
Method: Weighting an excess amount of posaconazole pharmaceutical composition into a container, adding phosphate buffer solution (pH 6.8, about ⅔ of the volume of the container), and then placing the container in a shaking table at 37° C., and shaking for 3 h. Filtering the content with a 0.45 μm filter membrane, collecting the filtrate, diluting it with an appropriate amount of methanol, vortex mixing, and then determining the concentration of posaconazole via the following HPLC method: […]

[3] = cited from earlier work

- Dissolution ([1]; pH 1.2, 5 min): 89.0%
- Dissolution ([1]; pH 1.2, 10 min): 87.0%
- Dissolution ([1]; pH 1.2, 30 min): 98.7%
- Dissolution ([1]; pH 6.8, 60 min): 7.1%
- Dissolution ([1]; pH 6.8, 120 min): 5.6%
- Dissolution ([1]; pH 6.8, 180 min): 5.6%
- solubility at 3 h ([2]; aqueous buffer, thermodynamic from solid, phosphate buffer solution pH 6.8, 37° C., shaking 3 h): < 1 µg/mL
- Apparent solubility ratio (composition/API) ([2]; phosphate buffer solution pH 6.8): 1
SMILES: CC[C@@H]([C@H](C)O)n1ncn(-c2ccc(N3CCN(c4ccc(OC[C@@H]5CO[C@@](Cn6cncn6)(c6ccc(F)cc6F)C5)cc4)CC3)cc2)c1=O [API, 4-[4-[4-[4-[[(3R,5R)-5-(2,4-difluorophenyl)-5-(1,2,4-triazole-1-ylmethyl)oxolan-3-yl]methoxy]phenyl]piperazin-1-yl]phenyl]-2-[(2S,3S)-2-hydroxypentan-3-yl]-1,2,4-triazol-3-one]
- Solubility ([3]; free base form, environment of the stomach pH=˜1.2): about 0.8 mg/ml
- Solubility ([3]; pH higher than 4): < 1 µg/mL

Reference: US10022373B2, “Posaconazole pharmaceutical compositions and preparation methods, uses and pharmaceutical formulations thereof” (SINOTHERAPEUTICS INC., priority 2014, dated 2018)
